Data: paper PMC6447882, “Pharmacokinetics and Biodistribution of Pegylated Methotrexate after IV Administration to Mice” (Iranian Journal of Pharmaceutical Research : IJPR, 2018)
Converted amounts (≈) assume the structure as drawn. “And” between values parts separate entries of the source, which are not always exact repeats. Equal entries are not always repeated. “Also recorded” adds a separate entry of the source. Where two headings read alike, the source gives them in different places. Blank lines part the entries; values can stand above or below the compound they belong to.

What was measured:
[1] = design: method as in PMID 18346806, PMID 12506184; conditions: drug linked to PEG40000 vs free drug; cited from earlier work
[2] = design: method as in PMID 18346806, PMID 12506184; conditions: conjugation to PEG5000; cited from earlier work
[3] = design: method as in PMID 18346806; conditions: cited from earlier work
[4] = Biodistribution (tissue distribution) after IV injection to mice; type: in vivo; conditions: iv 70 mg/kg
Procedure: For preparation of MTX tissue samples, one volume of tissue homogenate in normal saline was mixed with two volume acetonitrile and centrifuged in 12000 rpm for 5 min. The supernatant was removed and evaporated to dryness under nitrogen gas. The residue was reconstituted in 250 μL mobile phase and was injected to HPLC. For preparation of MTX-PEG5000 tissue samples, one volume of tissue homogenate in normal saline was mixed with two volumes of dichloromethane and shaked for 15 min. After centrifugation (5000 rpm), the lower organic phase was aspirated and dehydrated by Na2SO4 and after dissolving in 200 μL mobile phase, was injected to HPLC. The standard solutions were prepared in triplicate at concentration levels ranging from of 1 to 50 µg/mL for MTX and 2.5 to 500 µg/mL for MTX-PEG5000.
The same HPLC instrument was utilized for analysis of MTX and MTX-PEG tissue samples. The precision and accuracy of the method were examined by adding known amounts of MTX (0. 25, 2.5 and 10 µg/mL) and MTX-PEG5000 (5, 50 and 500 µg/mL) to pool tissue (quality control) samples. The other steps were performed as plasma samples.
IV bolous injections of MTX and MTX-PEG5000 (70 mg/kg) were administered to mice through marginal veins by insulin syringe (gauge 27). At least three mice were sacrificed at each time point. The animals (n = 200) at dosing were in the range of 2-4 weeks of age and their mean weight was 20 ± 5 g. The blood samples were collected at 5, 10, 15, 30, 45, 60, 90, and 120 min intervals for MTX and for at 5, 10, 15, 30, 45, 60, 90, 120, 180, 240, 300, and 360 min intervals for MTX-PEG5000. At each time point, the blood samples were collected from at least three mice and after centrifuging (10000 rpm, for 5 min), the plasma samples were separated and immediately frozen at -20 °C. Then, the mice were cervically dislocated and their organs including heart, liver, spleen, kidney, lung, brain, and small intestine were removed and after washing with normal saline, were dried by facial tissue and exactly weighed. […]

[5] = design: method as in earlier work; conditions: cited from earlier work
[6] = in vivo; conditions: mice; for half-life: iv
Procedure: A portion of 500 μL acetonitrile was added to a mixture of 225 μL plasma and 25 μL MTX or MTX-PEG5000 solution (100 µg/mL) and vortexed. Precipitated proteins were separated by centrifuging the mixture at 12000 rpm for 5 min. The supernatant was evaporated by a Multi-Evaporator (VLM EC 1, Italy) at 50 °C using nitrogen gas. The residue was dissolved in 150 μL mobile phase and injected to HPLC. The standards were prepared in triplicate at eight concentrations ranging from 0.25 to 100 µg/mL for MTX and from 1 to 1000 µg/mL for MTX-PEG5000.
A Knauer HPLC system consisted of a wellchrom pump k-1001, equipped with k-2701, DAD k-2700 detector was used. Chromatography was performed on a PerfectSilTarget® 100 HPLC Column (C8, 150 × 4.6 mm, 5 µm). For analysis of MTX, mobile phase consisted of phosphate-citrate buffer (pH 5): acetonitrile (88:12, v/v) and was delivered isocratically at a flow rate of 1 mL/min.
The column eluent was monitored using UV detector at the wavelength of 302 nm. For analysis of MTX-PEG5000, the mobile phase consisted of phosphate-citrate buffer (pH 5): acetonitrile (55:45, v/v) and was delivered isocratically at a flow rate of 0.5 mL/min. The column eluent was monitored using UV detector at the wavelength of 342 nm.
IV bolous injections of MTX and MTX-PEG5000 (70 mg/kg) were administered to mice through marginal veins by insulin syringe (gauge 27). At least three mice were sacrificed at each time point. The animals (n = 200) at dosing were in the range of 2-4 weeks of age and their mean weight was 20 ± 5 g. The blood samples were collected at 5, 10, 15, 30, 45, 60, 90, and 120 min intervals for MTX and for at 5, 10, 15, 30, 45, 60, 90, 120, 180, 240, 300, and 360 min intervals for MTX-PEG5000. At each time point, the blood samples were collected from at least three mice and after centrifuging (10000 rpm, for 5 min), the plasma samples were separated and immediately frozen at -20 °C. Then, the mice were cervically dislocated and their organs including heart, liver, spleen, kidney, lung, brain, and small intestine were removed and after washing with normal saline, were dried by facial tissue and exactly weighed. Whole removed organs and 0.25 to 0.5 g of liver and small intestine were minced and homogenized in a certain volume of normal saline using homogenizer IKA basic T25 (Germany). The organs were collected from MTX injected animals (10, 60 and 120 min for all organs and 5, 10, 30, 60 and 120 for liver tissue) and at 2, 6, 12, 24, and 48 h for mice administered by MTX-PEG5000.
The logarithm of plasma concentrations of MTX and MTX-PEG5000 were plotted vs. time. […] The pharmacokinetic parameters were obtained by fitting data to two-compartmental model equation (C = Ae^-αt + Be^-βt) and noncompartmental model using Excel 2010 (33).

[7] = test system: plasma proteins; conditions: cited from earlier work
[8] = relatively alkaline pH of plasma; no reference given; cited from earlier work
[9] = iv 70 mg/kg, two-compartmental model, n = 3
[10] = iv 70 mg/kg, two-compartmental model, n = 3, 70 mg/kg

Compound: CC[C@@]1(O)C(=O)OCc2c1cc1n(c2=O)Cc2cc3ccccc3nc2-1 [Campthotecin]
- T1/2 β [1]: 1320 min

Compound: Nc1ccn([C@@H]2O[C@H](CO)[C@@H](O)C2(F)F)c(=O)n1 [Gemcitabine]
- AUC [2]: 118.55 µg·min/mL
- T1/2 α [2]: 59.4 min
- T1/2 β [2]: 673.8 min
- clearance [2]: 0.654 mL/min

- Time after injection up to which measurable in tissues [4]: ≤ 2 h
- AUMC ([6]; iv 70 mg/kg, n = 3): 24.63 ± 2.84 mg.mL-.min2
- Vc ([6]; iv 70 mg/kg, n = 3): 94.025 ± 6.814 mL
- K10 [6, 9]: 0.236 ± 0.043 min⁻¹
- K12 [6, 9]: 0.050 ± 0.020 min⁻¹
- K21 [6, 9]: 0.036 ± 0.002 min⁻¹
- T1/2a (distribution half-life, T1/2 α) [6, 10]: 2.445 ± 0.549 min
- T1/2b (elimination half-life, T1/2 β) [6, 10]: 24.328 ± 0.657 min
- half-life ([6]; mouse, plasma, 70 mg/kg, two-compartmental model, n = 3, read-out: T1/2a (distribution half-life, T1/2 α)): 2.45 min
- half-life ([6]; mouse, plasma, 70 mg/kg, two-compartmental model, n = 3, read-out: T1/2b (elimination half-life, T1/2 β)): 24.3 min
- clearance ([6]; mouse, plasma, iv 70 mg/kg, n = 3, read-out: CLs (systemic clearance)): 22.4 ± 5.46 mL/min
- MRT ([6]; mouse, plasma, iv 70 mg/kg, noncompartmental model, n = 3, read-out: MRT (mean residence time) (converted)): 9.3 min
Compound: CN(Cc1cnc2nc(N)nc(N)c2n1)c1ccc(C(=O)N[C@@H](CCC(=O)O)C(=O)O)cc1 [MTX, Methotrexate]
- Solubility in aqueous solution ([3]; pH4): 0.08 mg/mL (≈ 0.176 mM)
- Solubility in aqueous solution ([3]; pH8): 58.17 mg/mL (≈ 128 mM)
- Accumulation in organs (liver, intestine) ([4]; 70 mg/kg): accumulated in liver immediately after its distribution phase (10 min) and then redistributed to small intestine (60 min); also recorded: high and fast accumulation in liver
- Presence in the brain ([4]; brain): no detectable amount of drug was found in the brain
- Plasma half-life [5]: 90 to 210 min
- AUC ([6]; iv 70 mg/kg, n = 3, 70 mg/kg): 2.64 mg·min/mL and 2.642 mg·min/mL and 2.642 ± 0.190 mg·min/mL
- Protein binding [7]: 30-50%
- Portion of the drug bound to plasma proteins ([7]; no reference given): 50%
- logP [8]: -1.4
